ChEMBL document CHEMBL1944623, “Synthesis, characterization and antiamoebic activity of some hydrazone and azole derivatives bearing pyridyl moiety as a promising heterocyclic scaffold” (Eur J Med Chem, 2012)

Columns and labels:
Entamoeba histolytica = assay: Antiameobic activity against Entamoeba histolytica HM-1:IMSS after 72 hrs using trypan blue staining method; format: functional, organism-based
MCF7 = assay: Cytotoxicity against human MCF7 cells assessed as cell viability after 48 hrs by MTT assay; format: cell-based; details: MCF7, 48 h

SMILES | IC50 (Entamoeba histolytica) | Activity (Entamoeba histolytica) | IC50 (MCF7)
CC(C)c1ccc(/C=N/NC(=O)c2ccncc2)cc1 | 3.74 µM |  | 
c1ccc(Nc2nnc(-c3ccncc3)s2)cc1 | 4.43 µM |  | 
COc1ccc(/C=N/NC(=O)c2ccncc2)cc1 | 0.39 µM | Dose-dependent effect | > 250 µM
Sc1nnc(-c2ccncc2)n1-c1ccccc1 | 0.16 µM | Dose-dependent effect | > 250 µM
S=c1[nH]nc(-c2ccncc2)o1 | 0.558 µM | Dose-dependent effect | > 250 µM
Cc1ncc([N+](=O)[O-])n1CCO [METRONIDAZOLE] |  |  | > 250 µM
O=C(N/N=C/c1cccc(Cl)c1)c1ccncc1 [N'-(3-CHLOROBENZYLIDENE)ISONICOTINOHYDRAZIDE] | 12.1 µM |  | 
CN(C)c1ccc(/C=N/NC(=O)c2ccncc2)cc1 [N'-(4-DIMETHYLAMINOBENZYLIDENE)ISONICOTINOHYDRAZIDE] | 5.55 µM |  | 
Cc1ccc(/C=N/NC(=O)c2ccncc2)cc1 [N'-(4-METHYLBENZYLIDENE)ISONICOTINOHYDRAZIDE] | 0.13 µM | Dose-dependent effect | > 250 µM
O=C(N/N=C/c1ccc([N+](=O)[O-])cc1)c1ccncc1 [N'-(4-NITROBENZYLIDENE)ISONICOTINOHYDRAZIDE] | 0.37 µM | Dose-dependent effect | > 250 µM
O=C(N/N=C/c1ccccc1)c1ccncc1 [N'-BENZYLIDENE ISONICOTINOHYDRAZIDE] | 3.84 µM |  | 
O=C(N/N=C/c1ccccc1O)c1ccncc1 [SALINAZID] | 4.14 µM |  | 
